pIC50: −log10 of the molar value.
Biological target: T1, NLRP3 inflammasome (Homo sapiens, UniProt Q96P20)
T1 construct: endogenous in cells; host or cells: THP-1 cells (PMA-differentiated, LPS-primed, nigericin-stimulated)
Assay: Cell assay of inhibitory activity against NLRP3 inflammasome in THP-1 cells (LPS/nigericin stimulation, caspase-1 glo readout)
Type: cell-based
Conditions: PMA-differentiated THP-1 cells; LPS 500 ng/ml 3 h, compound 1 h, nigericin 10 µg/ml 30 min; active caspase-1 in supernatant
Description: Experimental Example 1: Cell assay of inhibitory activity of the compounds of the present disclosure against NLRP3 inflammasome
Test compounds: the compounds of the present disclosure prepared in accordance with the methods described in the Examples
THP-1 was an immortalized human macrophage cell line.
Test instrument: Microplate reader (manufactured by PE)
• 1. THP-1 cells were cultured in 1640 complete medium (500 ml 1640+56 ml FBS+560 µl 1000× P/S+2 µl mercaptoethanol), and used within 3 to 20 passages. • 2. Coating of culture plates: 100 µl of polylysine solution was added into a 96-well cell culture plate and incubated at 37°C for 30min. The solution was discarded, and the plate was washed twice with PBS for later use. • 3. Induction of differentiation of THP-1: THP-1 cells were resuspended in an appropriate amount of complete medium containing 10 ng/ml PMA to achieve a cell density of 5×10^5 cells /ml in the suspension. The cell suspension was added into a 96-well plate with 100 µl of cell suspension per well, and the 96-well plate was cultured overnight for 16 hours in a 37°C CO2 cell incubator. • 4. Stimulation of THP-1: • a. Serum-free THP-1 culture medium containing LPS was added to achieve a final concentration of 500 ng/ml, and the resultant was cultured in a 37°C CO2 cell incubator for 3h; • b. The compounds to be tested were prepared into stock solutions at gradient concentrations with DMSO. The resulting solutions were added to the cells, evenly mixed, and finally diluted at 1:1000. The 96-well plate was cultured in a 37°C CO2 cell incubator for 1h. • c. Nigericin was added to each well to achieve a final concentration of 10 µg/ml, and the resultant was cultured in a 37°C CO2 cell incubator for 30 min. • d. The resulting culture medium in each well was transferred to a new culture plate, which was then centrifuged at 3000 rpm for 5min. Afterwards, the supernatant was transferred to a new 96-well plate. • e. The collected supernatant samples of the cell culture medium were determined by using a commercial caspase-1 glo kit, and the content of human active caspase-1 was determined according to the manufacturer's instructions.

T1 sequence (Q96P20 whole entry): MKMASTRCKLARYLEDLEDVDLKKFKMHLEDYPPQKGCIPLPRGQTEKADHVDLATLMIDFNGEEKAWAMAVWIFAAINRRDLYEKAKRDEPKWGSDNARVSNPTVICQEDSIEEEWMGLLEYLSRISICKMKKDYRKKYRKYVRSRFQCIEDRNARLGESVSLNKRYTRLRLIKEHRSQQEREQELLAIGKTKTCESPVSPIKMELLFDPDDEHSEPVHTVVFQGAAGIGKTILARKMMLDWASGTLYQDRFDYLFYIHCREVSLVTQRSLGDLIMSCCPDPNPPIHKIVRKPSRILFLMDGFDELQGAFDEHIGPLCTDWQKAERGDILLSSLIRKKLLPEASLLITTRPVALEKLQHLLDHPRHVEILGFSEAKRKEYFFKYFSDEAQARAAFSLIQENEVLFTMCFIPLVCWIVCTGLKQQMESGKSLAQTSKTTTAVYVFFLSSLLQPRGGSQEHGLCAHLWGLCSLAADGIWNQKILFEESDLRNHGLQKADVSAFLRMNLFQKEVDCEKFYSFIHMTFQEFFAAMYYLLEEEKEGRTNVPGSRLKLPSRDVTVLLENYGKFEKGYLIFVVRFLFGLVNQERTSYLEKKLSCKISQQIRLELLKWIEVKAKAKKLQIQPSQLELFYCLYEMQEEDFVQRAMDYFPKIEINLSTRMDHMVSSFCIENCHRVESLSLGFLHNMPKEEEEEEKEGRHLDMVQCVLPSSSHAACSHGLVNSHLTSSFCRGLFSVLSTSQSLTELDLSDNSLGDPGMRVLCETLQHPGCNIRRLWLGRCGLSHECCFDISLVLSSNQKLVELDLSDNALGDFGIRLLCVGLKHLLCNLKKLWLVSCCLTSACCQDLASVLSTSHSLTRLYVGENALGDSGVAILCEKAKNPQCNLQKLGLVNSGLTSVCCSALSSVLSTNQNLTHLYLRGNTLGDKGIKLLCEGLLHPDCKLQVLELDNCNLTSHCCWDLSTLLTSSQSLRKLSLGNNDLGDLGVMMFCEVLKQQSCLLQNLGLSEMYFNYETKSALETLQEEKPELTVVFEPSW

pIC50	SMILES
7.78	C#Cc1ccc(-c2nnc(NC(=O)CNC)cc2C)c(O)c1 [Compound 1, N-(6-(4-ethynyl-2-hydroxyphenyl)-5-methylpyridazin-3-yl)-2-(methylamino)acetamide]
7.74	C#Cc1ccc(-c2nnc(NC(=O)CNCC)cc2C)c(O)c1 [Compound 2, N-(6-(4-ethynyl-2-hydroxyphenyl)-5-methylpyridazin-3-yl)-2-(ethylamino)acetamide]
7.49	C#Cc1ccc(-c2nnc(NC(=O)CNC(C)C)cc2C)c(O)c1 [Compound 3, N-(6-(4-ethynyl-2-hydroxyphenyl)-5-methylpyridazin-3-yl)-2-(isopropylamino)acetamide]
8.89	C#Cc1ccc(-c2nnc(NC(=O)CNC)cc2C2CC2)c(O)c1 [Compound 7, N-(5-cyclopropyl-6-(4-ethynyl-2-hydroxyphenyl)pyridazin-3-yl)-2-(methylamino)acetamide]
8.85	C#Cc1ccc(-c2nnc(NC(=O)CNCC)cc2C2CC2)c(O)c1 [Compound 8, N-(5-cyclopropyl-6-(4-ethynyl-2-hydroxyphenyl)pyridazin-3-yl)-2-(ethylamino)acetamide]
8.01	C#Cc1ccc(-c2nnc(NC(=O)CNC(C)C)cc2C2CC2)c(O)c1 [Compound 9, N-(5-cyclopropyl-6-(4-ethynyl-2-hydroxyphenyl)pyridazin-3-yl)-2-(isopropylamino)acetamide]
7.72	C#Cc1ccc(-c2nnc(NC(=O)CNC3CC3)cc2C2CC2)c(O)c1 [Compound 10, N-(5-cyclopropyl-6-(4-ethynyl-2-hydroxyphenyl)pyridazin-3-yl)-2-(cyclopropylamino)acet amide]
7.63	C#Cc1ccc(-c2nnc(NC(=O)CN)cc2C2CC2)c(O)c1 [Compound 13, 2-amino-N-(5-cyclopropyl-6-(4-ethynyl-2-hydroxyphenyl)pyridazin-3-yl)acetamide]
8.07	C#Cc1ccc(-c2nnc(NC(=O)CNC)cc2C(C)C)c(O)c1 [Compound 16, N-(6-(4-ethynyl-2-hydroxyphenyl)-5-isopropylpyridazin-3-yl)-2-(methylamino)acetamide]
7.75	CNCC(=O)Nc1cc(C)c(-c2ccc(C(F)(F)F)cc2O)nn1 [Compound 17, N-(6-(2-hydroxy-4-(trifluoromethyl)phenyl)-5-methylpyridazin-3-yl)-2-(methylamino)acet amide]
8.47	CNCC(=O)Nc1cc(C(C)C)c(-c2ccc(C(F)(F)F)cc2O)nn1 [Compound 19, N-(6-(2-hydroxy-4-(trifluoromethyl)phenyl)-5-isopropylpyridazin-3-yl)-2-(methylamino)a cetamide]
9.52	CNCC(=O)Nc1cc(C2CC2)c(-c2ccc(C(F)(F)F)cc2O)nn1 [Compound 20, N-(5-cyclopropyl-6-(2-hydroxy-4-(trifluoromethyl)phenyl)pyridazin-3-yl)-2-(methylamino)acetamide]
7.88	C#Cc1ccc(-c2nnc(NC(=O)CNC3CCC3)cc2C)c(O)c1 [Compound 31, N-(6-(4-ethynyl-2-hydroxyphenyl)-5-methylpyridazin-3-yl)-2-(cyclobutylamino)acetamide]
7.84	C#Cc1ccc(-c2nnc(NC(=O)CNC3CC(O)C3)cc2C2CC2)c(O)c1 (stereo not shown) [Compound 33, N-(5-cyclopropyl-6-(4-ethynyl-2-hydroxyphenyl)pyridazin-3-yl)-2-((3-hydroxycyclobutyl)amino)acetamide]
8.54	C#Cc1ccc(-c2nnc(NC(=O)[C@@H](C)NC)cc2C2CC2)c(O)c1 [Compound 36, (R)-N-(5-cyclopropyl-6-(4-ethynyl-2-hydroxyphenyl)pyridazin-3-yl)-2-(methylamino)prop anamide]
7.53	C#Cc1ccc(-c2nnc(NC(=O)[C@H](C)NC)cc2C2CC2)c(O)c1 [Compound 37, (S)-N-(5-cyclopropyl-6-(4-ethynyl-2-hydroxyphenyl)pyridazin-3-yl)-2-(methylamino)prop anamide]
7.67	C#Cc1ccc(-c2nnc(NC(=O)[C@H]3CCCN3)cc2C2CC2)c(O)c1 [Compound 43, (R)-N-(5-cyclopropyl-6-(4-ethynyl-2-hydroxyphenyl)pyridazin-3-yl)pyrrolidine-2-carboxamide]

pIC50	SMILES
8.19	C#Cc1ccc(-c2nnc(NC(=O)[C@@H](C)N)cc2C2CC2)c(O)c1 [Compound 44, (R)-2-amino-N-(5-cyclopropyl-6-(4-ethynyl-2-hydroxyphenyl)pyridazin-3-yl)propanamide]
8.17	C[C@@H](N)C(=O)Nc1cc(C2CC2)c(-c2ccc(C(F)(F)F)cc2O)nn1 [Compound 50, (R)-2-amino-N-(5-cyclopropyl-6-(2-hydroxy-4-(trifluoromethyl)phenyl)pyridazin-3-yl)pro panamide]
7.84	C#Cc1ccc(-c2nnc(NC(=O)[C@H](N)COC)cc2C2CC2)c(O)c1 [Compound 51, (R)-2-amino-N-(5-cyclopropyl-6-(4-ethynyl-2-hydroxyphenyl)pyridazin-3-yl)-3-methoxyp ropanamide]
7.89	C#Cc1ccc(-c2nnc(NC(=O)[C@H](N)Cc3ccccc3)cc2C2CC2)c(O)c1 [Compound 52, (R)-2-amino-N-(5-cyclopropyl-6-(4-ethynyl-2-hydroxyphenyl)pyridazin-3-yl)-3-phenylpro panamide]
8.23	C#Cc1ccc(-c2nnc(NC(=O)[C@H](N)C3CC3)cc2C2CC2)c(O)c1 [Compound 53, (R)-2-amino-2-cyclopropyl-N-(5-cyclopropyl-6-(4-ethynyl-2-hydroxyphenyl)pyridazin-3-yl)acetamide]
7.63	C#Cc1ccc(-c2nnc(NC(=O)[C@H](N)CO)cc2C2CC2)c(O)c1 [Compound 55, (R)-2-amino-N-(5-cyclopropyl-6-(4-ethynyl-2-hydroxyphenyl)pyridazin-3-yl)-3-hydroxypr opanamide]
8.15	C#Cc1ccc(-c2nnc(NC(=O)[C@H](N)C(C)C)cc2C2CC2)c(O)c1 [Compound 56, (R)-2-amino-N-(5-cyclopropyl-6-(4-ethynyl-2-hydroxyphenyl)pyridazin-3-yl)-3-methylbut anamide]
7.76	C#Cc1ccc(-c2nnc(NC(=O)[C@H](N)[C@H](C)O)cc2C2CC2)c(O)c1 [Compound 57, (2R, 3S)-2-amino-N-(5-cyclopropyl-6-(4-ethynyl-2-hydroxyphenyl)pyridazin-3-yl)-3-hydroxyb utanamide]
7.49	C#Cc1ccc(-c2nnc(NC(=O)[C@H](N)[C@@H](C)O)cc2C2CC2)c(O)c1 [Compound 59, (2R,3R)-2-amino-N-(5-cyclopropyl-6-(4-ethynyl-2-hydroxyphenyl)pyridazin-3-yl)-3-hydro xybutanamide]
7.49	CNCC(=O)Nc1nnc(-c2ccc(C(F)(F)F)cc2O)c(C2CC2)n1 [Compound 60, N-(5-cyclopropyl-6-(2-hydroxy-4-(trifluoromethyl)phenyl)-1,2,4-triazin-3-yl)-2-(methylamino)acetamide]
8.21	CNCC(=O)Nc1cc(C2CCC2)c(-c2ccc(C(F)(F)F)cc2O)nn1 [Compound 61, N-(5-cyclobutyl-6-(2-hydroxy-4-(trifluoromethyl)phenyl)pyridazin-3-yl)-2-(methylamino) acetamide]
7.68	C#Cc1ccc(-c2nnc(NC(=O)CNC)cc2C2CCC2)c(O)c1 [Compound 62, N-(5-cyclobutyl-6-(4-ethynyl-2-hydroxyphenyl)pyridazin-3-yl)-2-(methylamino)acetamide]
8.14	C[C@@H](N)C(=O)Nc1cc(C2CCC2)c(-c2ccc(C(F)(F)F)cc2O)nn1 [Compound 63, (R)-2-amino-N-(5-cyclobutyl-6-(2-hydroxy-4-(trifluoromethyl)phenyl)pyridazin-3-yl)prop anamide]
7.85	CC(C)c1cc(NC(=O)[C@@H](C)N)nnc1-c1ccc(C(F)(F)F)cc1O [Compound 64, (R)-2-amino-N-(6-(2-hydroxy-4-(trifluoromethyl)phenyl)-5-isopropylpyridazin-3-yl)propa namide]
7.50	C#Cc1ccc(-c2nnc(NC(=O)[C@@H](C)N)cc2C2CCC2)c(O)c1 [Compound 65, (R)-2-amino-N-(5-cyclobutyl-6-(4-ethynyl-2-hydroxyphenyl)pyridazin-3-yl)propanamide]
7.86	C#Cc1ccc(-c2nnc(NC(=O)[C@@H](C)N)cc2C(C)C)c(O)c1 [Compound 66, (R)-2-amino-N-(6-(4-ethynyl-2-hydroxyphenyl)-5-isopropylpyridazin-3-yl)propanamide]

SMILES	pIC50
C#Cc1ccc(-c2nnc(NC(=O)CNCC3CC3)cc2C)c(O)c1 [Compound 34, N-(6-(4-ethynyl-2-hydroxyphenyl)-5-methylpyridazin-3-yl)-2-((cyclopropylmethyl)amino) acetamide]	7.73

— patent EP4759805A1, “NLRP3 INFLAMMASOME INHIBITOR AND USE THEREOF” (NEUROCRINE BIOSCIENCES, INC., priority 2023, dated 2025)
